Where no end group is shown, it is not given here.
What was measured:
[1] = test system: anti-MBP purified from CSF of MS patients; assay: In vitro neutralization of purified anti-MBP (liquid phase assay, then solid phase radioimmunoassay); format: binding, human; conditions: for neutralization of purified anti-MBP: pooled anti-MBP from 10 MS patients, FIG. 2; for REACTIVITY WITH ANTI-MBP: purified anti-MBP, h-MBP 0-1000 ng, peptides 0-10,000 ng, 1.5 hours incubation
Source text: Purified MBP was coupled to CNBr-activated Sepharose 4B (Pharmacia™) according to the manufacturer's instructions. Purified CSF IgG containing increased anti-MBP levels from 35 patients with acute MS relapses was used to isolate anti-MBP by MBP-Sepharose affinity chromatography (Warren, K. G. and Catz, I., J Neurol Sci 103:90-96, 1991). Purified anti-MBP samples were compared with the initial IgG source by poly-acrylamide gel electrophoresis. When purified anti-MBP samples were absorbed to zero with MBP, the post-absorption supernatants contained no residual IgG indicating the purity of anti-MBP.
Constant amounts of anti-MBP (15 radioactivity binding units corresponding to 100 for scale expansion purposes=% 0) were incubated with increasing amounts of h-MBP (0-1000 ng) or individual peptides of MBP (0-10,000 ng) in a liquid phase assay and after 1.5 hours incubation, free anti-MBP levels were determined in all mixtures. Anti-MBP isolated from 7 individual MS patients or pooled anti-MBP from 10 different MS patients were used in neutralization experiments. […] Another mouse monoclonal antibody to epitope 45-50 was used as negative antibody control.
(§1) Anti-MBP levels were determined by a solid phase radioimmunoassay with human MBP (Warren, K. G. and Catz, I., Ann Neurol 209:20-25, 1986; Warren, K. G. and Catz, I., Ann Neurol 21:183-187, 1987; and Warren, K. G. and Catz, I., J Neurol Sci 91:143-151, 1989). Free anti-MBP levels were measured in all fractions from affinity chromatography and in all neutralization mixtures. All individual samples were run in quadruplicate using the same iodinated material in order to minimize between-assay variability.

MAb to peptide MBP64-78 = assay: Positive antibody control of neutralization assay; format: binding
Method: (§2) Constant amounts of anti-MBP (15 radioactivity binding units corresponding to 100 for scale expansion purposes=% 0) were incubated with increasing amounts of h-MBP (0-1000 ng) or individual peptides of MBP (0-10,000 ng) in a liquid phase assay and after 1.5 hours incubation, free anti-MBP levels were determined in all mixtures. Anti-MBP isolated from 7 individual MS patients or pooled anti-MBP from 10 different MS patients were used in neutralization experiments. […] One monoclonal antibody (MAb) to peptide MBP64-78 and a polyclonal rabbit antiserum to peptide MBP1-8 were used as positive antibody controls (Groome, N., Harland, J., and Dawkes, A., Neurochem Int 7:309-317, 1985; Barry, R., Payton, M., and Groome, N., Neurochem Int 2:291-300, 1991). Another mouse monoclonal antibody to epitope 45-50 was used as negative antibody control.
as §1

[2] = test system: polyclonal rabbit antiserum to peptide MBP1-8; assay: Positive antibody control of neutralization assay; format: binding
Method: as §2, §1

[3] = test system: mouse monoclonal antibody to epitope 45-50; assay: Negative antibody control of neutralization assay; format: binding
Method: as §2, §1

[4] = test system: F and B anti-MBP purified from MS brain tissue; assay: Competitive inhibition assay with MBP decapeptides (epitope localization); format: binding, human; conditions: percent inhibition = 100 - radioactivity units, FIG. 10
Method: Prior to being assayed all CSF and/or tissue samples were diluted to a final IgG concentration of 0.010 g/l. F anti-MBP was detected directly in CSF or tissue extract while B levels of antibody were determined following acid hydrolysis of immune complexes with glycine HCl buffer pH 2.2. Non-specific binding was performed for each sample in uncoated wells. For epitope localization, synthetic peptides were firstly reacted with purified antibody in a liquid phase competitive assay and then anti-MBP was determined by radioimmunoassay in all resulting supernatants. Results of the combined competitive binding assay and radioimmunoassay were expressed as percent inhibition of synthetic peptide defined as 100—radioactivity units. Samples were done in 10 replicates and counted for 10 minutes each in a LKB1275 Minigamma counter. A pool of tissue-purified anti-MBP was used at 5 pre-established dilutions as positive controls. Pooled CSF from patients with non-neurological diseases was used as negative controls. Within assay reproducibility was between 3 and 5% and between assay variation was less than 7%.
The peptide(s) producing maximum inhibition were considered to be most highly associated with the antibody binding site.

ARTAHYGSLPQKSHG [MBP64-78]
neutralization of purified anti-MBP [1]: partially neutralized
REACTIVITY WITH ANTI-MBP [1]: +
inhibition of MAb to peptide MBP64-78 (MAb to peptide MBP64-78): inhibited

MBP1-8: synthetic peptide of human MBP sequence 1-8 with unnatural cysteine residue (ASQKRPSQC)
REACTIVITY WITH ANTI-MBP [1]: −
inhibition of antibody to peptide MBP1-8 [2]: inhibited

MBP: Native human myelin basic protein isolated from non-MS brain tissue, 18.5 KD (ASQKRPSQRHGSKYLATASTMDHARHGFLPRHRDTG)
neutralization of anti-MBP purified from individual patients ([1]; anti-MBP from 7 individual MS patients, FIG. 3): completely neutralized
neutralization of purified anti-MBP [1]: completely neutralized
REACTIVITY WITH ANTI-MBP [1]: ++
reaction with MAb to MBP 45-50 [3]: did not react
percent inhibition of F and B anti-MBP [4]: 100%

From US7368429B2, “Peptide specificity of anti-myelin basic protein and the administration of myelin basic protein peptides to multiple sclerosis patients” (The Governors of the University of Alberta, priority 1991, dated 2008)
